Experimental data as given in patent publication US20180045715A1, “STRUCTURE AND FUNCTION OF THE SALICYCLIC ACID BINDING SITES ON HUMAN HMGB1 AND METHODS OF USE THEREOF FOR THE RATIONAL DESIGN OF BOTH SALICYCLIC ACID DERIVATIVES AND OTHER AGENTS THAT ALTER ANIMAL AND PLANT HMGBS ACTIVITIES” (Boyce Thompson Institute for Plant Research, Inc., priority 2015, published 2018).
Changes are numbered by the printed parent chain.

Legend:
AtHMGB3 = molecular target: T1, AtHMGB3 (Arabidopsis thaliana, UniProt P93047); assay: SPR: AtHMGB3 binding to immobilized 3AESA; design: providing a full length Arabidopsis thaliana HMGB1 or HMGB3 (AtHMGB1 or AtHMGB3) protein; 6x His; made in house; host or cells: Escherichia coli BL21
T1 sequence (P93047 1-141): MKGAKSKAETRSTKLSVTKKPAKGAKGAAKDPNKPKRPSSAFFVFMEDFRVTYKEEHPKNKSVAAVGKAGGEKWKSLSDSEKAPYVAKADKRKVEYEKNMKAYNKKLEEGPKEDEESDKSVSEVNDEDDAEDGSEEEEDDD

AtHMGB1 = molecular target: T2, AtHMGB1 (Arabidopsis thaliana, UniProt O49595); assay: SPR: AtHMGB1 binding to immobilized 3AESA
T2 sequence (O49595 1-178): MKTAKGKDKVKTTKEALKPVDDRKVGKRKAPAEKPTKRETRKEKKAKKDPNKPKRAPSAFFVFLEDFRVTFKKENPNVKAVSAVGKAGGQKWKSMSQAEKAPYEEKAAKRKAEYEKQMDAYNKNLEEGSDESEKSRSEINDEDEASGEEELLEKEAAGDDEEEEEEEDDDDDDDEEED
Experimental: For SPR, 3-AESA was immobilized on a CM5 sensor chip (GE Healthcare) using the amine coupling kit (GE Healthcare). To test SA binding activity, 0.5 μM HMGB1 in HBS-EP buffer (0.01 M HEPES, pH 7.4, 0.15 M NaCl, 3 mM EDTA, 0.005% v/v Surfactant P20; GE Healthcare) without or with varying concentrations of SA was flowed through 3-AESA-immobilized or mock-coupled flow cells. The binding signals were determined by subtracting out the signal from the mock-coupled flow cell.

[1] = de-acetylation by esterases in human plasma (Costello et al., 1984); cited from earlier work
COX = conditions: cited from earlier work
HMGB1^RE = molecular target: T3, HMGB1^RE (Homo sapiens, UniProt P09429); assay: Chemotaxis assay (Boyden chambers): HMGB1^RE-elicited migration of mouse 3T3 fibroblasts; assay type: cell-based
T3 construct: (i) full length: residues 2-215; 6x His (cleaved yes); made in house; host or cells: Escherichia coli BL21
T3 sequence (P09429 2-215): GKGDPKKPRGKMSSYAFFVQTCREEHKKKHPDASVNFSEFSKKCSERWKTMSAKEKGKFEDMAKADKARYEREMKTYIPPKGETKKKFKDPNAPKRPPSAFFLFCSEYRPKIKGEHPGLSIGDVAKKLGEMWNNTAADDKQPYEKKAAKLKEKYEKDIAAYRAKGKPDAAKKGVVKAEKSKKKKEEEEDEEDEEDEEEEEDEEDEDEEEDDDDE
Experimental: (§1) Cell migration was assayed using Boyden chambers (Venereau et al., 2012). The downside of PVP-free polycarbonate filters (8 μm pores; Millipore) was coated with 50 μg/ml fibronectin (Sigma). Serum-free DMEM (negative control), DMEM containing 0.1 nM fMLP (positive control; Sigma), or DMEM containing 1 nM HMGB1^RE or HMGB1^SS were placed in the lower chamber, together with different concentrations of SA (Sigma). The mouse 3T3 fibroblast cells were cultured in DMEM media supplemented with 10% CS until 90% confluence, washed twice with PBS to eliminate any floating cells, and harvested with trypsin. 50,000 cells in 200 μL were added to the upper chamber, and cells were left to migrate for 3 h at 37° C. Non-migrating cells were removed with a cotton swab, and migrated cells were fixed with ethanol and stained with Giemsa.
(§2) HMGB1^RE acts as a chemo-attractant that mediates migration of several cell types, including monocytes, fibroblasts, mesoangioblasts, smooth muscle cells, and colon cancer cells (Venereau et al., 2012). To determine whether SA alters HMGB 1's chemo-attractant activity, a chemotaxis assay was performed with mouse 3T3 fibroblasts.

[2] = molecular target: T4, full-length (FL) R24A/K28A HMGB1 (Homo sapiens, UniProt P09429, K28A/R24A); assay: 15N-1H HSQC NMR binding to R24A/K28A HMGB1; conditions: ~0.1 mM protein; 15 mM SA, 3 mM ac3AESA or 3 mM amorfrutin B1
T4 construct: (i) full length: residues 2-215; made in house
T4 sequence (P09429 2-215 R24A/K28A): T3 sequence (P09429 2-215) with R23A, K27A
Experimental: […] Samples were analyzed with and without SA or other candidate inhibitors at 25° C. Chemical shift perturbation studies were carried out using either a Bruker Avance 800 MHz Avance NMR system with 4-mm NMR tubes, or using a Bruker Avance 600 MHz NMR spectrometer equipped with a 1.7 mm micro cryoprobe. 1024 or 2048 complex points were acquired for each of 80 to 200 increments in the ^15N dimension with a recycle delay of 1 s. Each spectrum was typically acquired for 2-8 hrs. Chemical shift assignments were determined using a uniformly ^13C,^15N-enriched HMGB1-ΔC construct at 25° C. via traditional triple-resonance NMR experiments (Biamonti et al., 1994; Moseley et al., 2001) recorded on a Bruker 800 MHz NMR spectrometer equipped with a 5 mm cryoprobe. Disulfide oxidation studies were carried out using the ^15N-^1H SOFAST-HMQC NMR experiment (Schanda & Brutscher, 2005; Schanda et al., 2005; Zandarashvili et al., 2013).
(§3) An alternative explanation is that SA, at low concentrations, affects another factor in vivo, which results indirectly in suppression of HMGB1^RE-induced chemotaxis. […] Therefore, these residues were mutated to Ala to form the double mutant Arg24Ala/Lys28Ala (R24A/K28A).

[3] = test system: fMLP-induced migration of NIH/3T3 fibroblast cells; assay: Chemotaxis assay: fMLP-induced fibroblast migration (specificity control); assay type: cell-based, mouse; conditions: 0.1 nM fMLP
Experimental: as §1, §2

[4] = molecular target: T5, mutant (R24A/K28A) HMGB1^RE (Homo sapiens, UniProt P09429, K28A/R24A); assay: Chemotaxis assay with mutant R24A/K28A HMGB1^RE; assay type: cell-based; conditions: NIH/3T3 fibroblasts
T5 construct: (i) full length: residues 2-215; made in house
T5 sequence (P09429 2-215 R24A/K28A): T3 sequence (P09429 2-215) with R23A, K27A
Experimental: as §1, §3

Compound: NCCc1cccc(C(=O)O)c1O [3AESA, 3-aminoethyl SA]
- binding of AtHMGB3 to 3AESA immobilized to SPR sensor chip (AtHMGB3): effectively bound
- binding of AtHMGB1 to 3AESA immobilized to SPR sensor chip (AtHMGB1): effectively bound

Compound: CC(=O)Oc1ccccc1C(=O)O [aspirin, acetylsalicylic acid]
- half-life of conversion to SA [1]: 13 to 19.5 min
- IC50, inhibition of COX activity in vitro (COX; literature (Mitchell et al., 1997; Vane, 1971)): 6.3 µg/mL
- IC50 (COX; literature, conversion in parentheses, read-out: IC50, inhibition of COX activity in vitro): ~35 µM

Compound: COc1cc(CCc2ccccc2)c(C(=O)O)c(O)c1C/C=C(\C)CCC=C(C)C [amorfrutin B1]
- IC50 (HMGB1^RE; NIH/3T3 fibroblasts, 1 nM HMGB1^RE, read-out: IC50, inhibition of chemo-attractant activity of HMGB1^RE): ~0.06 µM
- times more potent than SA at inhibiting the chemo-attractant activity of HMGB1^RE (HMGB1^RE; relative to SA): 50-70 times
- binding to R24A/K28A HMGB1 (CSPs in HSQC) [2]: do not bind
- effect on fibroblast migration induced by fMLP [3]: but not of 0.1 nM fMLP, was blocked
- inhibition of R24A/K28A HMGB1^RE's chemo-attractant activity [4]: only partially
